According to PubChem BioAssay (NCI):
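Dose response: 5 concentrations. Exposure: 48 h. Format: 96-well plates. Endpoint: linear interpolation; highest concentration if not reached. TGI marks complete inhibition of growth.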

How the values were obtained:
Assay in all cases: DTP human tumour cell line panel, 48 h
[1] = test system: COLO 205 colon
[2] = test system: HOP-62 NSCLC
[3] = test system: NCI-H23 lung
[4] = test system: SF-268 CNS
[5] = test system: T-47D breast
[6] = test system: UACC-62 melanoma
[7] = test system: DLD-1 colon
[8] = test system: DMS 114 small cell lung
[9] = test system: DMS 273 small cell lung
[10] = test system: HOP-18 NSCLC
[11] = test system: KM20L2 colon
[12] = test system: LXFL 529 NSCLC
[13] = test system: M19-MEL melanoma
[14] = test system: SNB-78 CNS
[15] = test system: XF 498 CNS

S=C(N/N=C(\c1ccccc1)c1ccccn1)NC1CCCCC1
TGI [1]: > 100 µM
TGI [2]: > 100 µM
TGI [3]: > 100 µM
TGI [4]: > 100 µM
TGI [5]: > 100 µM
TGI [6]: > 100 µM

COc1cccc(C23CCCC(C2)NCC3Br)c1OC (stereo not given)
TGI [1]: 27.1 µM
TGI [2]: > 100 µM
TGI [3]: > 100 µM
TGI [4]: > 100 µM
TGI [5]: > 100 µM
TGI [6]: 58.1 µM

Cc1cc(Cl)nc2nc(Cl)c(N)cc12
TGI [1]: 4.3 µM
TGI [2]: 19 µM
TGI [3]: 23.4 µM
TGI [4]: 3.5 µM
TGI [5]: 15.4 µM
TGI [6]: 5.95 µM

C=CCNC(=S)N1CC(C)C(=O)Nc2cc(Cl)ccc21 (stereo not given)
TGI [1]: > 100 µM
TGI [7]: > 100 µM
TGI [8]: > 100 µM
TGI [9]: > 100 µM
TGI [10]: > 100 µM
TGI [2]: > 100 µM
TGI [11]: > 100 µM
TGI [12]: > 100 µM
TGI [13]: > 100 µM
TGI [3]: > 100 µM
TGI [4]: > 100 µM
TGI [14]: > 100 µM
TGI [6]: > 100 µM

COc1cc2c(c(OC)c1OC)C(=O)[C@@H]1[C@H]2N1C(=O)NCCCl
TGI [1]: 78.3 µM
TGI [2]: > 100 µM
TGI [3]: > 100 µM
TGI [4]: > 100 µM
TGI [5]: > 100 µM
TGI [6]: > 100 µM

CC(=O)OCC1OC(n2ccc(=O)[nH]c2=O)C(OC(C)=O)C(OC(C)=O)C1OC(C)=O (stereo not given)
TGI [1]: > 100 µM
TGI [7]: > 100 µM
TGI [8]: > 100 µM
TGI [9]: > 100 µM
TGI [10]: > 100 µM
TGI [2]: > 100 µM
TGI [11]: > 100 µM
TGI [12]: > 100 µM
TGI [13]: > 100 µM
TGI [3]: > 100 µM
TGI [4]: > 100 µM
TGI [6]: > 100 µM
TGI [15]: > 100 µM

COC(=O)c1cc(C(=O)OC)c(CC(=O)C(=O)NC2C3CC4CC(C3)CC2C4)nc1CC(=O)C(=O)NC1C2CC3CC(C2)CC1C3 (stereo not given)
TGI [1]: > 100 µM
TGI [7]: > 100 µM
TGI [8]: > 100 µM
TGI [9]: > 100 µM
TGI [10]: > 100 µM
TGI [2]: > 100 µM
TGI [11]: > 100 µM
TGI [12]: > 100 µM
TGI [13]: > 100 µM
TGI [3]: > 100 µM
TGI [4]: > 100 µM
TGI [14]: > 100 µM
TGI [6]: > 100 µM

O=C/C1=C/C2=Cc3ccccc3C=C(/C=C(/C=O)C1)C2
TGI [1]: > 100 µM
TGI [7]: > 100 µM
TGI [8]: > 100 µM
TGI [9]: > 100 µM
TGI [2]: > 100 µM
TGI [11]: > 100 µM
TGI [12]: > 100 µM
TGI [13]: > 100 µM
TGI [3]: > 100 µM
TGI [4]: > 100 µM
TGI [14]: > 100 µM
TGI [6]: > 100 µM
TGI [15]: > 100 µM

COc1ccc(C2=NN(c3ccccc3)C[N+](c3ccc(C)cc3)=N2)cc1
TGI [1]: > 100 µM
TGI [7]: > 100 µM
TGI [8]: 65.1 µM
TGI [9]: > 10 µM
TGI [2]: > 100 µM
TGI [11]: > 100 µM
TGI [12]: 38.5 µM
TGI [13]: > 100 µM
TGI [3]: > 100 µM
TGI [4]: > 100 µM
TGI [14]: > 100 µM
TGI [15]: 52.9 µM

COc1ccc(/C=C/C(=O)/C=C/c2ccc(OC)cc2OC)c(OC)c1
TGI [1]: 51.9 µM
TGI [2]: 81.1 µM
TGI [3]: 43 µM
TGI [4]: 33.7 µM
TGI [5]: > 100 µM
TGI [6]: 52.5 µM

OC1c2ccccc2CCC1CN1CCN(CCOC(c2ccc(F)cc2)c2ccc(F)cc2)CC1 (stereo not given)
TGI [1]: 3.44 µM
TGI [2]: 60.5 µM
TGI [3]: 32.2 µM
TGI [4]: 39 µM
TGI [5]: 52.9 µM
TGI [6]: 27.7 µM
